Assay results: patent US11884710B2, “Peptide compounds and methods of use in wound healing” (priority 2013, dated 2024)

Test system: cytokines in corneal lysates
Experiment: Corneal cytokines after intrastromal injection (MILLIPLEX MAP mouse cytokine assay)
Format: in vivo
Conditions: intrastromal 0.5 μl, 10^−4, 10^−5, 10^−6 M; 24 and 48 hours
Procedure: Corneas were injected intrastromally with 0.5 μl of peptide 95-122 at a final concentration of 10^−4 M, 10^−5 M, and 10^−6 M and vehicle (saline) control. Corneas were collected and flash frozen at 24 hours and 48 hours. Corneal lysates were analyzed for cytokines using the MILLIPLEX® MAP mouse cytokine assay for IL-7(A), IL-15 (B), IFN-γ (C), MIP1-α (D) (EMD Millipore Corp., Billerica, Mass.). The means of independent experimental values are shown±SEM. ***P<0.001, **P<0.01, *P<0.05 by unpaired t-test as compared to vehicle treated controls. […] Corneas were injected intrastromally with 0.5 μl of peptide 95-122 at a final concentration of 10^−4 M, 10^−5 M, and 10^−6 M and vehicle (saline) control. Corneas were collected and flash frozen at 24 hours and 48 hours. Corneal lysates were analyzed for cytokines using the MILLIPLEX® MAP mouse cytokine assay for MIP1-β (EMD Millipore Corp., Billerica, Mass.). **P<0.01, *P<0.05 by unpaired t-test as compared to vehicle treated controls. […] Corneas were injected intrastromally with 0.5 μl of peptide 95-122 at a final concentration of 10^−4 M, 10^−5 M, and 10^−6 M and vehicle (saline) control. Corneas were collected and flash frozen at 24 hours and 48 hours. Corneal lysates were analyzed for cytokines using the MILLIPLEX® MAP mouse cytokine assay for KC (A), IL-1β (B), and GM-CSF (C) (EMD Millipore Corp., Billerica, Mass.). **P<0.01, *P<0.05 by unpaired t-test as compared to vehicle treated controls.

LDREANLTSSVTILPLPLQNATVEAGTR (listed as Homo sapiens) [Peptide 95-122]
significantly increases: GM-CSF in corneal lysates | IFN-γ in corneal lysates | IL-7 in corneal lysates | IL-10 in corneal lysates | IL-15 in corneal lysates | KC in corneal lysates | MIP1-α in corneal lysates | MIP1-β in corneal lysates
